1 compound from article PMC8627988 (Molecular Metabolism, 2021) can be followed below.

In general, IC50 refers to the concentration needed to halve the response being measured.

The target of this test is T1, PPARγ (Homo sapiens, UniProt P37231).
T1 sequence (P37231 235-505 limits assumed): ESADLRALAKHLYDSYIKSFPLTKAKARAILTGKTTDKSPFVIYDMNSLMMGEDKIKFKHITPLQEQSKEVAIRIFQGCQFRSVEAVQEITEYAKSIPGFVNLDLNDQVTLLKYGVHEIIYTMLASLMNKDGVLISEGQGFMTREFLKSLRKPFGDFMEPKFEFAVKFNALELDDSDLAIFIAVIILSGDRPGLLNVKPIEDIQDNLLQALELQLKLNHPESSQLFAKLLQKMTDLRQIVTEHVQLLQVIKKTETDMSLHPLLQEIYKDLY
As to the kind of experiment: fluorescence polarization competition binding. For orientation: Polarisation of emitted light reports the rotation of a fluorescent probe.

The compound `Cc1c(C)n(Cc2ccc(-c3ccccc3C(=O)O)cc2)c2ccc(C(=O)NCc3cccc(O)c3)cc12` [WO95E, 4'-((5-((3-hydroxybenzyl)carbamoyl)-2,3-dimethyl-1H-indol-1-yl)methyl)-[1,1′-biphenyl]-2-carboxylic acid] gave an IC50 of about 11 nM.
